This note sets out measurements from PubChem BioAssay (NCI).

The structures appear in SMILES notation.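 Growth conditions: 96-well plates. Treatment: test compound, 48 hours, 5 concentrations. Analysis: linear interpolation between bracketing concentrations; unreached endpoints set to highest concentration. Abbreviation: GI50, concentration required for 50% inhibition of growth. TGI is the concentration that stops growth completely.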

Test systems include IGROV1 ovarian; KM12 colon; MOLT-4 leukemia; NCI-H460 lung; OVCAR-8 ovarian; NCI-H522 lung; HOP-62 NSCLC; SNB-19 CNS; HT29 colon; A498 renal.
Holding throughout (assay): NCI-60 cell line screen, 48 h

Regarding `CCCCCCNCc1cc(C(C)(C)C)cc(CNCCCCCC)c1O`, the GI50 is 1.76 µM in the assay with IGROV1 ovarian; 1.82 µM in the assay with KM12 colon; 1.84 µM in the assay with MOLT-4 leukemia; 1.81 µM in the assay on NCI-H460 lung; 1.75 µM with OVCAR-8 ovarian; 1.65 µM in the assay on NCI-H522 lung. Moreover, the GI50 with HOP-62 NSCLC is 1.58 µM; in the assay with SNB-19 CNS, 1.76 µM; in the assay with HT29 colon, 1.75 µM; in the assay on A498 renal, 2.02 µM. The TGI with IGROV1 ovarian is 3.36 µM; in the assay with KM12 colon, 3.3 µM; in the assay on MOLT-4 leukemia, 3.84 µM; in the assay with NCI-H460 lung, 3.34 µM; in the assay with OVCAR-8 ovarian it was 3.37 µM; with NCI-H522 lung, 3.13 µM. The TGI in the assay with HOP-62 NSCLC is 2.93 µM; in the assay with SNB-19 CNS it was 3.23 µM; in the assay on HT29 colon, 3.24 µM; in the assay on A498 renal, 3.47 µM.

`CC1(C)Cc2c(Br)c(Br)c(Br)c(OCC(O)CN3CCN(c4ccccn4)CC3)c2O1` (configuration not stated): the GI50 in the assay on IGROV1 ovarian was 10.7 µM; in the assay with KM12 colon it was 7.78 µM; in the assay with MOLT-4 leukemia it was 3.19 µM; in the assay on NCI-H460 lung it was 9.43 µM; in the assay on OVCAR-8 ovarian, 20.9 µM; in the assay with NCI-H522 lung, 16.8 µM. The GI50 in the assay on HOP-62 NSCLC is 13.2 µM; in the assay with SNB-19 CNS, 20.8 µM; in the assay on HT29 colon, 5.5 µM; with A498 renal, 14.8 µM. Further, the TGI in the assay on IGROV1 ovarian stood at 26 µM; in the assay with KM12 colon it was 24.5 µM; in the assay on MOLT-4 leukemia, 19 µM; with NCI-H460 lung, 22.9 µM; with OVCAR-8 ovarian, 45.3 µM; in the assay on NCI-H522 lung, 35.5 µM. In addition, the TGI with HOP-62 NSCLC was determined as 27.7 µM; in the assay on SNB-19 CNS, 49.6 µM; in the assay on HT29 colon, 18 µM; in the assay with A498 renal, 29.5 µM.

Consider `O=C(CCCN1CCC(C(O)c2ccc(F)cc2)CC1)c1ccc(F)cc1` (configuration not stated), for which the TGI with IGROV1 ovarian is 130 µM; with KM12 colon, 116 µM; in the assay with MOLT-4 leukemia, 142 µM; with NCI-H460 lung it was 115 µM; with OVCAR-8 ovarian, 125 µM; with NCI-H522 lung, 139 µM. Besides, the TGI amounted to 125 µM in the assay with HOP-62 NSCLC, 114 µM with SNB-19 CNS, 92.7 µM in the assay on HT29 colon and 94.4 µM in the assay with A498 renal.

`CCN1C(=NCCO)NS(=O)(=O)c2ccccc21`: the TGI in the assay on IGROV1 ovarian, with KM12 colon, with MOLT-4 leukemia, in the assay with NCI-H460 lung, in the assay on OVCAR-8 ovarian and in the assay on NCI-H522 lung was above 100 µM each time. Further, the TGI in the assay with HOP-62 NSCLC, in the assay on SNB-19 CNS, with HT29 colon and in the assay with A498 renal was above 100 µM in each case.

For `COc1cc(C)c2sc3ccccc3c(=O)c2c1NCCN(C)C`, the GI50 was 3.56 µM with IGROV1 ovarian; 5.22 µM in the assay with KM12 colon; 2.58 µM with MOLT-4 leukemia; 3.26 µM in the assay on NCI-H460 lung; 5.44 µM with OVCAR-8 ovarian; 4.91 µM in the assay with NCI-H522 lung. Further, the GI50 with HOP-62 NSCLC is 7.1 µM; with SNB-19 CNS, 12.9 µM; in the assay with HT29 colon, 2.62 µM; in the assay with A498 renal, 8.83 µM. For the same compound, the TGI is 14.5 µM with IGROV1 ovarian; 18.9 µM in the assay with KM12 colon; 6.81 µM in the assay with MOLT-4 leukemia; 12.3 µM in the assay with NCI-H460 lung; 19.1 µM with OVCAR-8 ovarian; 17.9 µM in the assay on NCI-H522 lung. Besides, the TGI in the assay with HOP-62 NSCLC was found to be 19.6 µM; in the assay on SNB-19 CNS, 27.2 µM; with HT29 colon, 9.15 µM; with A498 renal, 22.1 µM.

For `Cc1cc(Cl)ccc1C(=O)c1ccc2ccccc2c1C(=O)O`, the TGI in the assay with IGROV1 ovarian, in the assay on KM12 colon, in the assay with MOLT-4 leukemia, in the assay on NCI-H460 lung, with OVCAR-8 ovarian and with NCI-H522 lung was above 100 µM each time. The TGI in the assay on SNB-19 CNS, with HT29 colon and in the assay with A498 renal was above 100 µM in each case.

For `COc1cc(C(C)O)c[n+](CCC2CNc3ccccc32)c1` (configuration not stated), the TGI in the assay with IGROV1 ovarian, in the assay with KM12 colon, in the assay with MOLT-4 leukemia, with NCI-H460 lung, with OVCAR-8 ovarian and in the assay with NCI-H522 lung was above 100 µM in each case. Further, the TGI with HOP-62 NSCLC, in the assay on SNB-19 CNS, with HT29 colon and with A498 renal was above 100 µM throughout.

Consider `COc1ccc(C(=O)c2sc3nc(-c4cccs4)ccc3c2N)cc1OC`, for which the GI50 in the assay on IGROV1 ovarian was 7.72 µM; in the assay on KM12 colon, 4.42 µM; with MOLT-4 leukemia, 3.78 µM; in the assay with NCI-H460 lung, 3.88 µM; in the assay with OVCAR-8 ovarian, 5.56 µM; with NCI-H522 lung it was 2.86 µM. In addition, the GI50 in the assay on HOP-62 NSCLC is 17.6 µM; in the assay with SNB-19 CNS it was above 100 µM; in the assay with HT29 colon, 3.65 µM; with A498 renal, 2 µM. Also, the TGI was above 100 µM in the assay on IGROV1 ovarian; above 100 µM in the assay on KM12 colon; 18 µM in the assay with MOLT-4 leukemia; above 100 µM in the assay with NCI-H460 lung; above 100 µM in the assay with OVCAR-8 ovarian; 95.8 µM in the assay with NCI-H522 lung. For the same compound, the TGI is above 100 µM in the assay on HOP-62 NSCLC, above 100 µM in the assay with SNB-19 CNS, 17.4 µM in the assay on HT29 colon and above 100 µM in the assay with A498 renal.

For `CC(=O)c1ccc(NC(=O)C(=O)C(C#N)CC(C)(C)C=O)cc1` (configuration not stated), the TGI in the assay with IGROV1 ovarian, with KM12 colon, in the assay with MOLT-4 leukemia, in the assay on NCI-H460 lung, in the assay with OVCAR-8 ovarian and in the assay with NCI-H522 lung was above 100 µM in each case. Further, the TGI with HOP-62 NSCLC, in the assay on SNB-19 CNS, with HT29 colon and with A498 renal was above 100 µM in each case.

As for `CCOC(=O)Nc1cc2ccccc2c(N=Nc2ccccc2)c1O`, the TGI in the assay with IGROV1 ovarian, in the assay on KM12 colon, in the assay on MOLT-4 leukemia, in the assay with NCI-H460 lung, with OVCAR-8 ovarian and in the assay with NCI-H522 lung was above 100 µM throughout. In addition, the TGI in the assay on HOP-62 NSCLC, in the assay on SNB-19 CNS, with HT29 colon and in the assay with A498 renal was above 100 µM each time.

Consider `COc1cccc(SSc2cccc(OC)c2C(=O)O)c1C(=O)O`, for which the TGI in the assay with IGROV1 ovarian, in the assay with KM12 colon, in the assay with MOLT-4 leukemia, in the assay on NCI-H460 lung, in the assay with OVCAR-8 ovarian and in the assay on NCI-H522 lung was above 100 µM throughout. The TGI in the assay on HOP-62 NSCLC, in the assay on HT29 colon and in the assay on A498 renal was above 100 µM in each case.

For `COc1cc2oc3c(c(=O)c2c(O)c1/C=C/C(C)C)C(C=C(C)C)Oc1cc(O)ccc1-3` (configuration not stated), the TGI in the assay with IGROV1 ovarian was determined as 27.7 µM; with KM12 colon, 34.5 µM; with MOLT-4 leukemia it was 25.8 µM; in the assay on NCI-H460 lung, 30.9 µM; with OVCAR-8 ovarian, 30.8 µM; in the assay on NCI-H522 lung, 32.3 µM. For the same compound, the TGI in the assay with SNB-19 CNS was 30.6 µM; in the assay on HT29 colon, 28.8 µM; with A498 renal it was 40.3 µM.

As for `CC(C)(C)N/N=C(\C(=O)NC1=C(Cl)C(=O)c2ccccc2C1=O)C1C=CCS1(=O)=O` (configuration not stated), the TGI with IGROV1 ovarian is 24.5 µM; in the assay on KM12 colon, above 100 µM; in the assay with MOLT-4 leukemia, above 100 µM; in the assay with NCI-H460 lung, 22 µM; with OVCAR-8 ovarian, 72 µM; in the assay on NCI-H522 lung it was 25.5 µM. Moreover, the TGI in the assay on SNB-19 CNS is above 100 µM; with HT29 colon, 29.3 µM; in the assay with A498 renal, 36.7 µM.

As for `COC(=O)C(C(=O)OC)C(Br)C(Br)C(Br)c1ccccc1` (configuration not stated), the GI50 with IGROV1 ovarian is 4.92 µM; with KM12 colon, 17 µM; in the assay with MOLT-4 leukemia it was 4.11 µM; with NCI-H460 lung, 19.9 µM; in the assay on OVCAR-8 ovarian, 4.86 µM; in the assay with NCI-H522 lung, 1.69 µM. The GI50 in the assay with HOP-62 NSCLC is 16.9 µM; with HT29 colon it was 5.68 µM; in the assay with A498 renal it was 15.5 µM. In addition, the TGI in the assay with IGROV1 ovarian turned out to be 27 µM; in the assay with KM12 colon it was 32.4 µM; in the assay on MOLT-4 leukemia it was 16.8 µM; in the assay with NCI-H460 lung, 37.2 µM; with OVCAR-8 ovarian it was 17.2 µM; in the assay with NCI-H522 lung it was 3.33 µM. Further, the TGI stood at 36 µM with HOP-62 NSCLC, 21.8 µM with HT29 colon and 33.1 µM in the assay on A498 renal.

In the case of `N#CC(C#N)=C/C=C(\Sc1ccc(F)cc1Cl)c1ccc(Cl)cc1`, the GI50 was 1.81 µM with IGROV1 ovarian; 0.714 µM with KM12 colon; 0.194 µM in the assay on MOLT-4 leukemia; 0.763 µM with NCI-H460 lung; 0.601 µM with OVCAR-8 ovarian; 1.93 µM in the assay with NCI-H522 lung. The GI50 with HOP-62 NSCLC was 0.904 µM; with SNB-19 CNS, 4.54 µM; with A498 renal, 8.97 µM. Moreover, the TGI in the assay on IGROV1 ovarian is above 54.5 µM; with KM12 colon it was 2.79 µM; in the assay on MOLT-4 leukemia it was above 100 µM; in the assay with NCI-H460 lung, 4.82 µM; in the assay on OVCAR-8 ovarian, 6.46 µM; with NCI-H522 lung, 10.8 µM. Further, the TGI in the assay on HOP-62 NSCLC was determined as 3.42 µM; in the assay with SNB-19 CNS, 23.6 µM; in the assay with A498 renal, 24 µM.
